Entries after “also recorded” stand apart in the source; their conditions may differ. Counter-ions that a name gives are not always drawn. Like-named read-outs stand apart in the source and are kept apart here.
Assays:
T. castaneum mAChR-B = system: T. castaneum mAChR-B; parameters: method as in Collin et al., 2013; settings: ref Collin et al., 2013, cited from earlier work; for antagonist effect on T. castaneum mAChR-B (in words): same expression system as this study
TsGAR-1 [1] = target: T1, TsGAR-1 (Trichinella spiralis, UniProt A0A0V1C1R2); test: Aequorin calcium mobilization agonist assay in CHO-K1 cells expressing TsGAR-1; type: cell-based; settings: for ACh-mediated calcium mobilization via TsGAR-1 (in words): Fig. 4
T1 sequence (A0A0V1C1R2 entry or part of it): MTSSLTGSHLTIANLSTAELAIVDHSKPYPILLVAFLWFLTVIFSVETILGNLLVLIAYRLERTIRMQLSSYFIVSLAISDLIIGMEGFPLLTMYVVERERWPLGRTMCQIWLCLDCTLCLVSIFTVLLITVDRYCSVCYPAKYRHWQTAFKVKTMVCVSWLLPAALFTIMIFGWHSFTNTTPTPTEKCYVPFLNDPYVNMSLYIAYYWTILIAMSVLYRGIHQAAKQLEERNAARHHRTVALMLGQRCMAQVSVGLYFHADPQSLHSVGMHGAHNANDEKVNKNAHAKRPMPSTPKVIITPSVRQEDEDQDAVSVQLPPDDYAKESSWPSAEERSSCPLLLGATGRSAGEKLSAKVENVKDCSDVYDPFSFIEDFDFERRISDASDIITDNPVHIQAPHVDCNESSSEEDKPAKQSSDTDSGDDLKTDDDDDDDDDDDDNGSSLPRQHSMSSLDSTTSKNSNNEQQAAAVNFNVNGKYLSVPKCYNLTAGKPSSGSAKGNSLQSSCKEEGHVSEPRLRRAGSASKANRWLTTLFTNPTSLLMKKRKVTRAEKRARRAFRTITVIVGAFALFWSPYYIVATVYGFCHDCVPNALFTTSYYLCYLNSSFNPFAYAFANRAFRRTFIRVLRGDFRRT
Description: (§1) T. spiralis GARs were heterologously expressed in CHO–K1 cells (Sigma) along with the aequorin reporter—with or without the wild-type human G protein alpha 15 subunit (Gα15(16)) (cDNA Resource Center, Bloomsburg University of Pennsylvania)—to observe activation of the receptor by monitoring bioluminescence triggered by the mobilization of intracellular calcium ([Offermanns and Simon, 1995]; [Park et al., 2002]). Therefore, there were two types of transient expression: i) TsGAR-1, -2, or -3/aequorin/Gα15(16); and ii) TsGAR-1, -2, or -3/aequorin. The use of Gα15(16) in the first assay is due to its highly efficient way of linking calcium mobilization signaling pathways to GPCRs that are preferentially coupling with Gi/o or Gs protein members ([Offermanns and Simon, 1995]).
(§2) For handling cell lines, all transfection details, and monitoring receptor activities, we followed the previously published study ([Šimo et al., 2011], [2013]; [Mateos-Hernández et al., 2020]). Briefly, CHO–K1 cells were kept in growth medium (Ham's F12 Media with 10% fetal bovine serum) until 70% of confluence was reached. FuGENE® HD Transfection Reagent (Promega) was then used to transfect the plasmid constructs. Prior to the assay, the cells were pre-equilibrated with coelenterazine h (Promega) for 3 h at room temperature. The assay was performed in opaque 96-well microplates (Nunc) using either Fluostar Omega (BMG Labtech) or GloMax® Plate Reader (Promega). In agonist assays, 50 μL of various doses of agonistic ligands were added to wells in triplicate, followed by injection of 50μL/∼15,000 of CHO–K1 cells. Immediately after the cell injections, luminescence values were monitored for 25 s and their integrated values over time were normalized to the largest positive control response in each plate (45 μM ACh) after background noise was subtracted. When performing the antagonist assay, cells were pre-incubated with different doses of antagonistic ligands for 5 min in RT (in a 96-well plate) and subsequently a 50 μL of 10 μM ACh solution was injected into the wells. The changes in luminescence were measured for 25 s immediately after injecting ACh, and time integrated values were normalized to the response of those wells in each plate that only contained cells with medium. A dose-response curve was plotted afterwards for each data set and half-maximum response values (EC50 or IC50) along the Hill coefficient (nH) were calculated using GraphPad Prism 8.0 (GraphPad Software). Two and three biological replicates were performed for the testing of T. spiralis GARs with or without the Gα15(16) and agonistic or antagonistic assay, respectively, with three technical replicates for each ligand. In terms of negative controls, a mock transfection was performed using empty pcDNA3.1 (+) plasmid, with an aequorin reporter and Gα15(16) subunit. To confirm the specificity of T. spiralis GAR-1, -2, and -3 affinity, we tested dopamine, octopamine and norepinephrine chemical agents.

D. melanogaster mAChR-B = system: D. melanogaster mAChR-B; parameters: method as in Collin et al., 2013; settings: ref Collin et al., 2013, cited from earlier work; for antagonist effect on D. melanogaster mAChR-B (in words): same expression system as this study
TsGAR-2 [2] = target: T2, TsGAR-2 (Trichinella spiralis, UniProt E5SAZ1); test: Aequorin calcium mobilization agonist assay in CHO-K1 cells expressing TsGAR-2; type: cell-based; settings: for ACh-mediated calcium mobilization via TsGAR-2 (in words): Fig. 4
T2 sequence (E5SAZ1 entry or part of it): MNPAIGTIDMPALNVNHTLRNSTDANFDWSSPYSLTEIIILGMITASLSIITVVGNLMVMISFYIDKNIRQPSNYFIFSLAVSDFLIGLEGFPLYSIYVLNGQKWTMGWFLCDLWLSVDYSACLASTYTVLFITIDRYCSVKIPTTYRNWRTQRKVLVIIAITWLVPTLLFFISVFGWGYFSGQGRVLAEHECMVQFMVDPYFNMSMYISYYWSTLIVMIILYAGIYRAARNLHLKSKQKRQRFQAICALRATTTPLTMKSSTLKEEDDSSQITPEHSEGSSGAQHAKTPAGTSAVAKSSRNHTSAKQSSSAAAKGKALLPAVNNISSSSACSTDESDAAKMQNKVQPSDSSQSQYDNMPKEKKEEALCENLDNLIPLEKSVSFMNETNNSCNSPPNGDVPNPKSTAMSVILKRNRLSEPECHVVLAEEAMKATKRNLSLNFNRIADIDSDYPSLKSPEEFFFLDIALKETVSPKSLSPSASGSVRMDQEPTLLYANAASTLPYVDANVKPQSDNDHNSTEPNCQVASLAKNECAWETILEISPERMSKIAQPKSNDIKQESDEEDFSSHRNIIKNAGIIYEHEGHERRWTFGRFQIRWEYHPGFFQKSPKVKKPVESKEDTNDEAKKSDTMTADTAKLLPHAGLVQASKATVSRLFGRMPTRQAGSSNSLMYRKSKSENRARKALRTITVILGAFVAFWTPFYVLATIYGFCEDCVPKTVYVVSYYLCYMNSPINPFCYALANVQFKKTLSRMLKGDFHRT
Description: as §1, §2

TsGAR-3 [3] = target: T3, TsGAR-3 (Trichinella spiralis, UniProt E5S5F5); test: Aequorin calcium mobilization agonist assay in CHO-K1 cells expressing TsGAR-3; type: cell-based; settings: for ACh-mediated calcium mobilization via TsGAR-3 (in words): Fig. 4
T3 sequence (E5S5F5 entry or part of it): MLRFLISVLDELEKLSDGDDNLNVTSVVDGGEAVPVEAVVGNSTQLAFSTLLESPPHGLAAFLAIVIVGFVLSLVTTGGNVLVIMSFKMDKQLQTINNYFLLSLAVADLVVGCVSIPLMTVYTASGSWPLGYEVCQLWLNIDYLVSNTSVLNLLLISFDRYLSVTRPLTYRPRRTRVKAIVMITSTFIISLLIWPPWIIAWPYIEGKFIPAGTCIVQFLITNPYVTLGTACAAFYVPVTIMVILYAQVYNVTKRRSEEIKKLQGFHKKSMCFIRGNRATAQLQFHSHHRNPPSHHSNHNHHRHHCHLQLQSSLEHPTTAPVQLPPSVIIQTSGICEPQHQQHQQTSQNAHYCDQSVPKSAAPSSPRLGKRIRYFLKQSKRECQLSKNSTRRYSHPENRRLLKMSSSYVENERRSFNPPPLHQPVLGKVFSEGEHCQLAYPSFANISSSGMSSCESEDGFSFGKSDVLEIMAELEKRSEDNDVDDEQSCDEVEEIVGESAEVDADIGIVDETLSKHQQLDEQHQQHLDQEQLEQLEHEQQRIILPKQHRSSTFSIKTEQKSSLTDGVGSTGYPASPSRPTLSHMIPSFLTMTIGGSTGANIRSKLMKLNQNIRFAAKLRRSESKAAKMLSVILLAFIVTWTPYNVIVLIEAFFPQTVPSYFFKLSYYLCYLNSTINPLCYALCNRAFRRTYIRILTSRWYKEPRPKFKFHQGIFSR
Description: as §1, §2

TsGAR-2 [4] = target: T2, TsGAR-2; test: Aequorin antagonist assay (block of 10 μM ACh response) in CHO-K1 cells expressing TsGAR-2; type: cell-based; settings: co-expressed with Gα15(16)
Description: as §1, §2

A. suum GAR-1 = system: A. suum GAR-1; parameters: method as in Kimber et al., 2009; settings: ref Kimber et al., 2009; cited from earlier work
C. elegans GAR-2 = system: C. elegans GAR-2; parameters: method as in Lee et al., 1999, Lee et al., 2000; settings: ref Lee et al., 1999, Lee et al., 2000; cited from earlier work
TsGAR-1 [5] = target: T1, TsGAR-1; test: Aequorin antagonist assay (block of 10 μM ACh response) in CHO-K1 cells expressing TsGAR-1; type: cell-based; settings: co-expressed with Gα15(16)
Description: as §1
as §2, with “In terms of negative controls, a mock transfection was performed using empty pcDNA3.1 (+) plasmid, with an aequorin reporter and Gα15(16) subunit. To confirm the specificity of T. spiralis GAR-1, -2, and -3 affinity, we tested dopamine, octopamine and norepinephrine chemical agents.” left out

C. elegans GAR-1 = system: C. elegans GAR-1; parameters: method as in Lee et al., 1999, Lee et al., 2000; settings: ref Lee et al., 1999, Lee et al., 2000; cited from earlier work
TsGAR-3 [6] = target: T3, TsGAR-3; test: Aequorin antagonist assay (block of 10 μM ACh response) in CHO-K1 cells expressing TsGAR-3; type: cell-based; settings: for nH (Hill coefficient), antagonist, TsGAR-3 / antagonist effect on TsGAR-3 (in words): without Gα15(16)
Description: Therefore, there were two types of transient expression: i) TsGAR-1, -2, or -3/aequorin/Gα15(16); and ii) TsGAR-1, -2, or -3/aequorin.
as §2, with “Briefly,” for “For handling cell lines, all transfection details, and monitoring receptor activities, we followed the previously published study ([Šimo et al., 2011], [2013]; [Mateos-Hernández et al., 2020]). Briefly,”, “Immediately after the cell injections, luminescence values were monitored for 25 s and their integrated values over time were normalized to the largest positive control response in each plate (45 μM ACh) after background noise was subtracted.” left out

[7] = times lower sensitivity than mAChR-A
[8] = agonist, co-expressed with Gα15(16)
[9] = expressed alone, without Gα15(16)

Structure (SMILES)	agonist activity on TsGAR-1 (in words) (TsGAR-1 [1]; co-expressed with Gα15(16))	EC50 (TsGAR-2 [2])	nH (Hill coefficient), agonist, TsGAR-2 (TsGAR-2 [2]; [8])	agonist activity on TsGAR-2 (in words) (TsGAR-2 [2]; co-expressed with Gα15(16))	EC50 (TsGAR-3 [3])	nH (Hill coefficient), agonist, TsGAR-3 (TsGAR-3 [3]; without Gα15(16))	agonist activity on TsGAR-3 (in words) (TsGAR-3 [3]; without Gα15(16))	antagonist effect on TsGAR-2 (in words) (TsGAR-2 [4])	antagonist effect on TsGAR-1 (in words) (TsGAR-1 [5])	IC50 (TsGAR-3 [6])	nH (Hill coefficient), antagonist, TsGAR-3 (TsGAR-3 [6])	antagonist effect on TsGAR-3 (in words) (TsGAR-3 [6])	EC50 (TsGAR-1 [1])	nH (Hill coefficient), agonist, TsGAR-1 (TsGAR-1 [1]; [8])	further results
C[C@@H]1O[C@H](C[N+](C)(C)C)C[C@H]1O [Muscarine, (+)-muscarine chloride]	no	> 10000 nM	0.8666	low affinity	2.5 ± 0.96 µM	0.7106	potent agonist								sensitivity of T. castaneum mAChR-B relative to mAChR-A (T. castaneum mAChR-B; [7]): ~100 times; sensitivity of D. melanogaster mAChR-B relative to mAChR-A (D. melanogaster mAChR-B; [7]): about 1000 times
CCCOC(C(=O)OC1CCN(C)CC1)(c1ccccc1)c1ccccc1 [Propiverine, propiverine hydrochloride]								partially blocked	partially blocked	> 10 µM	−0.6649	partially blocked			IC50 (TsGAR-2 [4]; antagonist vs 10 μM ACh, read-out: IC50 ± SE (nM), TsGAR-2): > 10000 nM; nH (Hill coefficient), antagonist, TsGAR-2 (TsGAR-2 [4]; antagonist): −3.002; antagonist effect on A. suum GAR-1 (in words) (A. suum GAR-1): largely no effect; antagonist effect on C. elegans GAR-2 (in words) (C. elegans GAR-2): largely no effect; IC50 (TsGAR-1 [5]; antagonist vs 10 μM ACh, read-out: IC50 ± SE (nM), TsGAR-1): > 10000 nM; antagonist effect on C. elegans GAR-1 (in words) (C. elegans GAR-1): largely no effect
CC(C[N+](C)(C)C)OC(N)=O (stereo not drawn) [Bethanechol, bethanechol chloride]	low potency	> 10000 nM	0.8738	low potency	> 10 µM	1.390	low potency						> 10000 nM	0.9289	agonist activity on A. suum GAR-1 (in words) (A. suum GAR-1): agonistic effect was shown
CN1[C@@H]2C[C@@H](OC(=O)[C@H](CO)c3ccccc3)C[C@H]1[C@@H]1O[C@@H]12 [Scopolamine, (−)-scopolamine hydrobromide trihydrate]								not effective in blocking	not effective in blocking	0.0273 ± 0.0063 µM	−1.151	effectively inhibited			antagonist effect on T. castaneum mAChR-B (in words) (T. castaneum mAChR-B): remained unaffected; antagonist effect on D. melanogaster mAChR-B (in words) (D. melanogaster mAChR-B): remained unaffected
CC(=O)OCC[N+](C)(C)C [Acetylcholine, acetylcholine chloride]	potent activator		0.5883	potent activator	0.4 ± 0.0731 µM	0.7319	potent activator							0.8621	EC50 (TsGAR-1 [1]; agonist, CHO cells, co-expressed with Gα15(16), SE of three biological replications, read-out: EC50 ± SE (nM), TsGAR-1): 194 ± 18.1 nM; ACh-mediated calcium mobilization via TsGAR-1 (in words) (TsGAR-1 [1]; co-expressed with Gα15(16)): dose-dependent activity; ACh-mediated calcium mobilization via TsGAR-1 (in words) (TsGAR-1 [1]; [9]): effective responses; EC50 (TsGAR-2 [2]; agonist, CHO cells, co-expressed with Gα15(16), SE of three biological replications, read-out: EC50 ± SE (nM), TsGAR-2): 14.7 ± 10.8 nM; ACh-mediated calcium mobilization via TsGAR-2 (in words) (TsGAR-2 [2]; co-expressed with Gα15(16)): dose-dependent activity; ACh-mediated calcium mobilization via TsGAR-2 (in words) (TsGAR-2 [2]; [9]): effective responses; ACh-mediated calcium mobilization via TsGAR-3 (in words) (TsGAR-3 [3]; co-expressed with Gα15(16)): dose-dependent activity; ACh-mediated calcium mobilization via TsGAR-3 (in words) (TsGAR-3 [3]; [9]): effective responses
COC(=O)C1=CCCN(C)C1 [Arecoline, arecoline hydrobromide]	partial agonist			did not detect any arecoline-triggered activation	0.457 ± 0.156 µM	1.199	partial agonist						4630 ± 841 nM	1.054	agonist activity on A. suum GAR-1 (in words) (A. suum GAR-1): effectively activate
C[N+](C)(C)CCOC(N)=O [Carbachol, carbamoylcholine chloride]		2670 ± 508 nM	0.9531		1.93 ± 0.256 µM	0.9117							2050 ± 235 nM	0.8693	
CN1[C@@H]2CC[C@H]1C[C@@H](OC(=O)C(CO)c1ccccc1)C2 (stereo partly drawn) [Atropine, atropine]								not effective in blocking	not effective in blocking; also recorded: totally ineffective	0.222 ± 0.0427 µM	−0.8748	effectively inhibited			antagonist effect on T. castaneum mAChR-B (in words) (T. castaneum mAChR-B): remained unaffected; antagonist effect on D. melanogaster mAChR-B (in words) (D. melanogaster mAChR-B): remained unaffected; antagonist effect on A. suum GAR-1 (in words) (A. suum GAR-1): effective in inhibiting; also recorded: effectively blocked; antagonist effect on C. elegans GAR-1 (in words) (C. elegans GAR-1): effective in inhibiting; also recorded: effectively blocked

Source: paper PMC10731000, “Functional characterization of three G protein-coupled acetylcholine receptors in parasitic nematode Trichinella spiralis” (International Journal for Parasitology: Drugs and Drug …, 2023)
